Structures are written as SMILES.

T1 sequence (Q16539 whole entry): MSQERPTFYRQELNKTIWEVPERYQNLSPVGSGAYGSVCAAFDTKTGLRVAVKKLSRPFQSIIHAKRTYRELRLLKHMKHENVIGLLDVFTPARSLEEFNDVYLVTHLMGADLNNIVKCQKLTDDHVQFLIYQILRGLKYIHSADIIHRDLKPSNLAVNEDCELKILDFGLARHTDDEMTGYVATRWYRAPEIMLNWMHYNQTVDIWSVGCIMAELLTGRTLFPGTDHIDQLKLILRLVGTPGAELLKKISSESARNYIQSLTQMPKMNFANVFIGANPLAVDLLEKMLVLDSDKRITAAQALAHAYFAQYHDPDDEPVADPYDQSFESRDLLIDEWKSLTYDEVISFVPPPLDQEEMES

This experiment addresses T1, Activated human p38α (Homo sapiens, UniProt Q16539).
T1 construct: purchased Upstate Biotechnology Inc. 14-251
Nature of the experiment: p38MAP kinase inhibition test. It is filed as biochemical. The settings on record: at a concentration of 1 μmol/L; substrate myelin basic protein, ATP 20 μmol/L, [γ-32P]ATP; read-out: enzyme inhibitory activity. A digest of the protocol:
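Phosphorylation of myelin basic protein (20 μg/assay) by the kinase measured via [γ-32P]ATP incorporation at 20 μmol/L ATP, pH 7.2 MOPS buffer, 30° C. for 15 min. Labelled substrate bound to P81 paper, washed, and quantified by scintillation counting; compounds added in DMSO.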
Take `COc1cc2nc(NC(C)C)ncc2cc1-c1cccc(NC(=O)c2ccccc2C(F)(F)F)c1` [Compound 217, 2-Isopropylamino-7-methoxy-6-{3-[(2-trifluoromethylphenyl)carbonylamino]phenyl}quinazoline]: the inhibition at 1 µM was at least 50%.

As for `COc1cc2nc(NC(C)C)ncc2cc1-c1cccc(NC(=O)c2cccc(F)c2)c1` [Compound 219, 6-{3-[(3-Fluorophenyl)carbonylamino]phenyl}-2-isopropylamino-7-methoxyquinazoline], the inhibition at 1 µM is at least 50%.

Consider `COc1cc2nc(NC(C)C)ncc2cc1-c1cccc(NC(=O)C2CC2)c1` [Compound 220, 6-[3-(Cyclopropylcarbonylamino)phenyl]-2-isopropylamino-7-methoxyquinazoline], for which the inhibition at 1 µM is at least 50%.

In the case of `COc1cc2nc(NC(C)C)ncc2cc1-c1cccc(NC(=O)c2cccnc2)c1` [Compound 221, 2-Isopropylamino-7-methoxy-6-{3-[(3-pyridyl)carbonylamino]phenyl}quinazoline], the inhibition at 1 µM was at least 50%.

For `COc1cc2nc(NC(C)C)ncc2cc1-c1cccc(NC(=O)C2CCC2)c1` [Compound 222, 6-[3-(Cyclobutylcarbonylamino)phenyl]-2-isopropylamino-7-methoxyquinazoline], the inhibition at 1 µM is at least 50%.

As for `COc1cc2nc(NC(C)C)ncc2cc1-c1cc([N+](=O)[O-])ccc1CO` [Compound 223, 6-(2-Hydroxymethyl-5-nitrophenyl)-2-isopropylamino-7-methoxyquinazoline], the inhibition at 1 µM is at least 50%.

Take `COc1cc2nc(NC(C)C)ncc2cc1-c1cc(N)ccc1CO` [Compound 224, 6-[5-Amino-2-(hydroxymethyl)phenyl]-2-isopropylamino-7-methoxyquinazoline]: the inhibition at 1 µM was at least 50%.

Regarding `COc1cc2nc(NC(C)C)ncc2cc1-c1cc(NC(C)=O)ccc1CO` [Compound 225, 6-[5-Acetylamino-2-(hydroxymethyl)phenyl]-2-isopropylamino-7-methoxyquinazoline], the inhibition at 1 µM was at least 50%.

Consider `COc1cc2nc(NC(C)C)ncc2cc1-c1cc(NC(C)=O)ccc1C#N` [Compound 227, 6-(5-Acetylamino-2-cyanophenyl)-2-isopropylamino-7-methoxyquinazoline], for which the inhibition at 1 µM is at least 50%.

`COc1cc2nc(NC(C)C)ncc2cc1-c1cc(NC(=O)c2ccc[nH]2)ccc1CO` [Compound 228, 6-{2-Hydroxymethyl-5-[(1H-pyrrol-2-yl)carbonylamino]phenyl}-2-isopropylamino-7-methoxyquinazoline]: the inhibition at 1 µM was at least 50%.

In the case of `COc1cc2nc(NC(C)C)ncc2cc1-c1cc(N)ccc1C` [Compound 229, 6-(5-Amino-2-methylphenyl)-2-isopropylamino-7-methoxyquinazoline], the inhibition at 1 µM was at least 50%.

As for `COc1cc2nc(NC(C)C)ncc2cc1-c1cc(NC(C)=O)ccc1C` [Compound 230, 6-(5-Acetylamino-2-methylphenyl)-2-isopropylamino-7-methoxyquinazoline], the inhibition at 1 µM is at least 50%.

`COc1cc2nc(NC(C)C)ncc2cc1-c1cc(NC(=O)c2ccnc(N3CCOCC3)c2)ccc1C` [Compound 231, 2-Isopropylamino-7-methoxy-6-{2-methyl-5-[(2-morpholinopyridin-4-yl)carbonylamino]phenyl}quinazoline]: the inhibition at 1 µM was at least 50%.

With `COc1cc2nc(NC(C)C)ncc2cc1-c1cc(NC(=O)c2ccc[nH]2)ccc1C` [Compound 232, 2-Isopropylamino-7-methoxy-6-{2-methyl-5-[(1H-pyrrol-2-yl)carbonylamino]phenyl}quinazoline], the inhibition at 1 µM was at least 50%.

As for `COc1cc2nc(NC(C)C)ncc2cc1-c1cc(NC(C)=O)ccc1F` [Compound 233, 6-(5-Acetylamino-2-fluorophenyl)-2-isopropylamino-7-methoxyquinazoline], the inhibition at 1 µM was at least 50%.

Regarding `COc1ccc(NC(C)=O)cc1-c1cc2cnc(NC(C)C)nc2cc1OC` [Compound 234, 6-(5-Acetylamino-2-methoxyphenyl)-2-isopropylamino-7-methoxyquinazoline], the inhibition at 1 µM is at least 50%.

With `COc1cc2nc(NC3CCN(S(C)(=O)=O)CC3)ncc2cc1-c1ccccc1C=O` [Compound 237, 6-(2-Formylphenyl)-7-methoxy-2-[1-(methylsulfonyl)piperidin-4-ylamino]quinazoline], the inhibition at 1 µM was at least 50%.

As for `COc1cc2nc(NC3CCN(S(C)(=O)=O)CC3)ncc2cc1-c1cccc(NC(C)=O)c1` [Compound 238, 6-(3-Acetylaminophenyl)-7-methoxy-2-[1-(methylsulfonyl)piperidin-4-ylamino]quinazoline], the inhibition at 1 µM is at least 50%.

On to `COc1cc2nc(NC3CCN(S(C)(=O)=O)CC3)ncc2cc1-c1ccccc1NC(C)=O` [Compound 239, 6-(2-Acetylaminophenyl)-7-methoxy-2-[1-(methylsulfonyl)piperidin-4-ylamino]quinazoline], for which the inhibition at 1 µM is at least 50%.

As for `COc1cc2nc(NC3CCN(S(C)(=O)=O)CC3)ncc2cc1-c1cccc(O)c1` [Compound 240, 6-(3-Hydroxyphenyl)-7-methoxy-2-[1-(methylsulfonyl)piperidin-4-ylamino]quinazoline], the inhibition at 1 µM is at least 50%.

Take `COc1cc2nc(NC3CCN(S(C)(=O)=O)CC3)ncc2cc1-c1ccccc1O` [Compound 241, 6-(2-Hydroxyphenyl)-7-methoxy-2-[1-(methylsulfonyl)piperidin-4-ylamino]quinazoline]: the inhibition at 1 µM is at least 50%.

Regarding `COc1cc2nc(NC3CCN(S(C)(=O)=O)CC3)ncc2cc1-c1ccccc1C(=O)O` [Compound 242, 6-(2-Carboxyphenyl)-7-methoxy-2-[1-(methylsulfonyl)piperidin-4-ylamino]quinazoline], the inhibition at 1 µM is at least 50%.

As to `COc1cc2nc(NC3CCOCC3)ncc2cc1-c1cccc(NC(C)=O)c1` [Compound 243, 6-(3-Acetylaminophenyl)-7-methoxy-2-(4-tetrahydropyranylamino)quinazoline], the inhibition at 1 µM was at least 50%.

Regarding `CC(C)Nc1ncc2cc(-c3cccc(O)c3)c(O)cc2n1` [Compound 244, 7-Hydroxy-6-(3-hydroxyphenyl)-2-(isopropylamino)quinazoline], the inhibition at 1 µM was at least 50%.

As for `Cc1ccccc1-c1cc2cnc(NC(C)C)nc2cc1O` [Compound 245, 7-Hydroxy-2-isopropylamino-6-(2-methylphenyl)quinazoline], the inhibition at 1 µM was at least 50%.

Turning to `COc1cc2nc(N)ncc2cc1-c1cc(NC(C)=O)ccc1C` [Compound 249, 6-(5-Acetylamino-2-methylphenyl)-2-amino-7-methoxyquinazoline], the inhibition at 1 µM is at least 50%.

For the compound `CNc1ncc2cc(-c3cc(NC(C)=O)ccc3C)c(OC)cc2n1` [Compound 250, 6-(5-Acetylamino-2-methylphenyl)-7-methoxy-2-(methylamino)quinazoline], the inhibition at 1 µM was at least 50%.

Regarding `CNc1ncc2cc(-c3cc(NC(=O)c4ccc[nH]4)ccc3C)c(OC)cc2n1` [Compound 251, 7-Methoxy-2-methylamino-6-{2-methyl-5-[(1H-pyrrol-2-yl)carbonylamino]phenyl}quinazoline], the inhibition at 1 µM is at least 50%.

These data come from US7906522B2, “2-aminoquinazoline derivatives” (Kyowa Hakko Kirin Co., Ltd, priority 2005, dated 2011).
